How the values were obtained:
Type in all cases: in vivo
[1] = tested on: ABUTILON THEOPHRASTI, MEDIC.; assay: Postemergence herbicidal evaluation, ABUTH (Velvetleaf); settings: rated four to five weeks after treatment, averaged
Summary of the method: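 This postemergence herbicide test used two-week-old velvetleaf seedlings grown in jiffy flats. Each compound was sprayed at 40 psi as a dispersion in 50/50 acetone/water with 0.5% TWEEN®20 surfactant. Plants then received routine greenhouse care. After four to five weeks, injury was scored visually on a 0-9 scale against a control, and replicate tests were averaged.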

[2] = tested on: CHENOPODIUM ALBUM, L.; assay: Preemergence herbicidal evaluation, CHEAL (Lambsquarters, Common); settings: four to five weeks after treatment
Summary of the method: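 First, seeds in potting soil are sown atop soil in cups. Next, the surface is sprayed with test compound in aqueous acetone at roughly 0.125 to 0.50 kg per hectare. After four to five weeks of greenhouse care, each cup is scored 0-9 against a control.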

[3] = tested on: GALIUM APARINE; assay: Preemergence herbicidal evaluation, GALAP (Galium); settings: four to five weeks after treatment
From the text: Results of herbicide evaluation are expressed on a rating scale (0-9). The scale is based upon a visual observation of plant stand, vigor, malformation, size, chlorosis and overall plant appearance as compared with a control.
The preemergence herbicidal activity of the test compounds of the present invention is exemplified by the following tests in which the seeds of a variety of monocotyledonous and dicotyledonous plants are separately mixed with potting soil and planted on top of approximately one inch of soil in separate pint cups. […] The treated cups are then placed on greenhouse benches, watered and cared for in accordance with conventional greenhouse procedures. From four to five weeks after treatment, the tests are terminated and each cup is examined and rated according to the rating system provided in Example 40.
The compounds evaluated are reported by compound number given in Example 40.

[4] = tested on: SAGITTARIA PYGMAEA, L.; assay: Preemergence weed control under flooded paddy conditions, SAGPY (Arrowhead (Pygmaea)); settings: preemergence weeds, rated three to four weeks after treatment
Summary of the method: (§1)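 In undrained pots of silt loam flooded to 1.5-3 cm, compounds are pipetted into the water before emergence at the equivalent of about 0.5, 0.25, 0.125 and 0.063 kg/ha. Plants are scored 0-9 for stand, vigor, malformation, size and chlorosis at test end (3-4 weeks).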

[5] = tested on: ORYZA SATIVA, L. TEBONNET; assay: Rice tolerance to post-transplant applications under flooded paddy conditions, ORYSAT (Rice, Tebonnet); settings: post-transplant rice, rated three to four weeks after treatment;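 also: applied to flooded soil surface three days after transplanting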
Summary of the method: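 Greenhouse pots of silt loam, each with two transplanted ten-day-old seedlings, are held under 1.5 to 3 cm of standing water. Three days later the compound is applied to the flooded surface at about 0.5, 0.25, 0.125 or 0.063 kg/ha. Damage is scored visually 0-9 after 3-4 weeks.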

[6] = tested on: CYPERUS SEROTINUS, ROTTB.; assay: Preemergence weed control under flooded paddy conditions, CYPSE (Flatsedge); settings: preemergence weeds, rated three to four weeks after treatment
Summary of the method: as §1

| SMILES | ABUTH, herbicide rating (0-9) ([1]; Rate 0.125 kg/ha) | ABUTH, herbicide rating (0-9) ([1]; Rate 0.250 kg/ha) | ABUTH, herbicide rating (0-9) ([1]; Rate 0.500 kg/ha) | CHEAL rating ([2]; Rate 0.125 kg/ha) | CHEAL rating ([2]; Rate 0.250 kg/ha) | CHEAL rating ([2]; Rate 0.500 kg/ha) | GALAP rating ([3]; Rate 0.125 kg/ha) | GALAP rating ([3]; Rate 0.250 kg/ha) | GALAP rating ([3]; Rate 0.500 kg/ha) | SAGPY herbicidal rating ([4]; Rate 0.125 kg/ha) | SAGPY herbicidal rating ([4]; Rate 0.250 kg/ha) | SAGPY herbicidal rating ([4]; Rate 0.500 kg/ha) | ORYSAT herbicidal rating (rice tolerance) ([5]; Rate 0.125 kg/ha) | ORYSAT herbicidal rating (rice tolerance) ([5]; Rate 0.250 kg/ha) | ORYSAT herbicidal rating (rice tolerance) ([5]; Rate 0.500 kg/ha) | CYPSE herbicidal rating ([6]; Rate 0.125 kg/ha) | CYPSE herbicidal rating ([6]; Rate 0.250 kg/ha) |
| --- | --- | --- | --- | --- | --- | --- | --- | --- | --- | --- | --- | --- | --- | --- | --- | --- | --- |
| CCOC(=O)Cn1c(=O)n(CC(=O)OC)c(=O)n(-c2cc(Oc3ccc(C(F)(F)F)cc3Cl)ccc2[N+](=O)[O-])c1=O [Compound 6, 1-Ethyl methyl 5-{5-[(2-chloro-α,α,α-tri-fluoro-p-tolyl)oxy]-2-nitrophenyl}dihydro-2,4,6-trioxo-s-triazine-1,3(2H,4H)-diacetate] | 9.0 | 9.0 | 9.0 | 9.0 | 9.0 | 9.0 | 9.0 | 9.0 | 9.0 | 0.0 | 0.0 | 0.0 | 1.0 | 1.0 | 1.0 | – | – |
| C#CCn1c(=O)n(CC(=O)OCC)c(=O)n(-c2cc(Oc3ccc(C(F)(F)F)cc3Cl)ccc2[N+](=O)[O-])c1=O [Compound 7, Ethyl 3-{5-[(2-chloro-α,α,α-trifluoro-p-tolyl)oxy]-2-nitrophenyl}tetrahydro-2,4,6-trioxo-5-(2-propynyl)-s-triazine-1(2H)-acetate] | – | – | – | – | – | – | 4.0 | 8.0 | 9.0 | 0.0 | 0.0 | 0.0 | 0.0 | 0.0 | 1.0 | 0.0 | 0.0 |
